One test deals with T1, VEGFR2 (KDR) (Homo sapiens, UniProt P35968).
T1 construct: made in house; host or cells: Sf9 cells (Spodoptera frugiperda), baculovirus
As to the kind of experiment: In vitro receptor tyrosine kinase assay (VEGF receptor KDR), DELFIA. The test is classed as biochemical. As to conditions: recombinant GST-VEGFR2 806-1356, ATP 0.6 uM; read-out: VEGFR IC50UM. An excerpt: In Vitro Receptor Tyrosine Kinase Assay (VEGF Receptor KDR)
This test measures the ability of compounds to inhibit the enzymatic activity of recombinant human VEGF receptor enzymatic activity.
A 1.6-kb cDNA corresponding to the catalytic domain of VEGFR2 (KDR) (Genbank accession number AF035121 amino acid 806 to 1356) is cloned into the Pst I site of the pDEST20 Gateway vector (Invitrogen) for the production of a GST-tagged version of that enzyme. This construct is used to generate recombinant baculovirus using the Bac-to-Bac™ system according to the manufacturer's instructions (Invitrogen).
The GST-VEGFR2806-1356 protein is expressed in Sf9 cells (Spodoptera frugiperda) upon infection with recombinant baculovirus construct. Briefly, Sf9 cells grown in suspension and maintained in serum-free medium (Sf900 II supplemented with gentamycin) at a cell density of about 2×10^6 cells/ml are infected with the above-mentioned viruses at a multiplicity of infection (MOI) of 0.1 during 72 hours at 27° C. with agitation at 120 rpm on a rotary shaker. Infected cells are harvested by centrifugation at 398 g for 15 min. Cell pellets are frozen at −80° C. until purification is performed.
All steps described in cell extraction and purification are performed at 4° C. Frozen Sf9 cell pellets infected with the GST-VEGFR2806-1356 recombinant baculovirus are thawed and gently resuspended in Buffer A (PBS pH 7.3 supplemented with 1 μg/ml pepstatin, 2 μg/ml Aprotinin and leupeptin, 50 μg/ml PMSF, 50 μg/ml TLCK and 10 μM E64 and 0.5 mM DTT) using 3 ml of buffer per gram of cells. Suspension is Dounce homogenized and 1% Triton X-100 is added to the homogenate after which it is centrifuged at 22500 g, 30 min., 4° C. The supernatant (cell extract) is used as starting material for purification of GST-VEGFR2806-1356.
The supernatant is loaded onto a GST-agarose column (Sigma) equilibrated with PBS pH 7.3. Following a four column volume (CV) wash with PBS pH 7.3+1% Triton X-100 and 4 CV wash with buffer B (50 mM Tris pH 8.0, 20% glycerol and 100 mM NaCl), bound proteins are step eluted with 5 CV of buffer B supplemented with 5 mM DTT and 15 mM glutathion. GST-VEGFR2806-1356 enriched fractions from this chromatography step are pooled based on U.V. trace i.e. fractions with high O.D.280. Final GST-VEGFR2806-1356 protein preparations concentrations are about 0.7 mg/ml with purity approximating 70%. Purified GST-VEGFR2806-1356 protein stocks are aliquoted and frozen at −80° C. prior to use in enzymatic assay.
Inhibition of VEGFR/KDR is measured in a DELFIA™ assay (Perkin Elmer). The substrate poly(Glu4,Tyr) is immobilized onto black high-binding polystyrene 96-well plates. The coated plates are washed and stored at 4° C. During the assay, the enzyme is pre-incubated with inhibitor and Mg-ATP on ice in polypropylene 96-well plates for 4 minutes, and then transferred to the coated plates. The subsequent kinase reaction takes place at 30° C. for 10-30 minutes. ATP concentrations in the assay are 0.6 uM for VEGFR/KDR (2× the Km). Enzyme concentration is 5 nM. After incubation, the kinase reactions are quenched with EDTA and the plates are washed. Phosphorylated product is detected by incubation with Europium-labeled anti-phosphotyrosine MoAb. After washing the plates, bound MoAb is detected by time-resolved fluorescence in a Gemini SpectraMax reader (Molecular Devices). Compounds are evaluated over a range of concentrations, and IC50 values (concentration of compounds giving 50% inhibition of enzymatic activity) are determined.

The subject of test [1] is laser-induced choroidal neovascularization (CNV). As to the kind of experiment: In vivo choroidal neovascularization (CNV) model. Details: species or system rat. To be noted: Rattus norvegicus, 240 h; Brown-Norway rats, dose 3 nmol/eye, injection on Day 3, CNV area on Day 10; read-out: Inhibition of CNV Progression (%). The text has this:
In Vivo Choroidal Neovascularization (CNV) Model This test measures the capacity of compounds to inhibit CNV progression. CNV is the main cause of severe vision loss in patients suffering from age-related macular degeneration (AMD). Male Brown-Norway rats (Charles River Japan Co., Ltd.) were used in these studies. Rats were anesthetized by intraperitoneal injection of pentobarbital, and the right pupil was dilated with 0.5% tropicamide and 0.5% phenylephrine hydrochloride. The right eye received 6 laser burns between retinal vessels using a slit lamp delivery system of Green laser Photocoagulator (Nidex Inc., Japan), and microscope slide glass with 10 mg/mL hyaluronic acid (SIGMA) used as a contact lens. The laser power was 200 mW for 0.1 second and spot diameter was 100 μm. At the time of laser burn, bubble production was observed; which is an indication of rupture of Bruch's membrane which is important for CNV generation. After animals were anesthetized, and the right pupil dilated (as mentioned above), the right eye of the animal received the compound or vehicle by an injection (3 μL/eye) at doses of 3 or 10 nmol/eye on Day 3. The compounds were dissolved or suspended in CBS, PBS, or other adequate vehicles before injection. On Day 10, the animals were anesthetized with ether, and high molecular weight fluorescein isothiocyanate (FITC)-dextran (SIGMA, 2×10^6 MW) was injected via a tail vein (20 mg/rat). About 30 min after FITC-dextran injection, animals were euthanized by ether or carbon dioxide, and the eyes were removed and fixed with 10% formaline neutral buffer solution. After over 1 hour of fixation, RPE-choroid-sclera flat mounts were obtained by removing cornea, lens and retina from the eyeballs. The flat mounts were mounted in 50% glycerol on a microscope slide, and the portion burned by laser was photographed using a fluorescence microscope (Nikon Corporation, excitation filter: 465-495 nm, absorption filter: 515-555 nm). The CNV area was obtained by measurement of hyper-fluorescence area observed on the photograph using Scion image. The average CNV area of 6 burns was used as an individual value of CNV area, and the average CNV area of compound treated group was compared with that of the vehicle-treated group.

T1 sequence (P35968 806-1356): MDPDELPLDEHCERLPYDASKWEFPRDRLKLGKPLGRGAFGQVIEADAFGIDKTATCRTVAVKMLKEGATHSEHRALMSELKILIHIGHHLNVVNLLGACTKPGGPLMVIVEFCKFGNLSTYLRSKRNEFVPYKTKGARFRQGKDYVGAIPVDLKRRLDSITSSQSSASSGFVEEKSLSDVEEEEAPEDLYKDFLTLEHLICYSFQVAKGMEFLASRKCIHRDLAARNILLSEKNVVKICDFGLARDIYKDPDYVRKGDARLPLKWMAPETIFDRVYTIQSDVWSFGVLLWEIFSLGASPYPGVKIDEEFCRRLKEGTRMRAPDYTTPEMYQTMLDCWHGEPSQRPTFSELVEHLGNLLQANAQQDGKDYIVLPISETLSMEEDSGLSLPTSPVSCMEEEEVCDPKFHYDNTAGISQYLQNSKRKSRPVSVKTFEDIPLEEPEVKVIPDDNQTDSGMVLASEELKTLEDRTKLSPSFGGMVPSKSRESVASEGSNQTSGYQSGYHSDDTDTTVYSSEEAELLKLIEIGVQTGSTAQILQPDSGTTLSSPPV

On to `COCCOCCOCCOCC(=O)N1CCN(Cc2ccc(-c3cc4nccc(Oc5ccc(NC(=O)NC6CC6)cc5F)c4s3)nc2)CC1` [Compound 47], for which, at VEGFR2 (KDR), the IC50 stood at 12 nM.

As to `COCCOCCOCCOCCOCCOC(=O)N1CCN(Cc2ccc(-c3cc4nccc(Oc5ccc(NC(=O)NC6CC6)cc5F)c4s3)nc2)CC1` [Compound 52], the IC50 at VEGFR2 (KDR) was found to be 13 nM.

For the molecule `COCCOCCOCCOCCOc1cccc(NCc2ccc(-c3cc4nccc(Oc5ccc(NC(=O)NC6CC6)cc5F)c4s3)nc2)c1` [Compound 40], the IC50 at VEGFR2 (KDR) turned out to be 24 nM.

As to `COCCOCCOCCNC(=O)N1CCN(Cc2ccc(-c3cc4nccc(Oc5ccc(NC(=O)NC6CC6)cc5F)c4s3)nc2)CC1` [Compound 54, 4-((6-(7-(4-(3-Cyclopropylureido)-2-fluorophenoxy)thieno[3,2-b]pyridin-2-yl)pyridin-3-yl)methyl)-N-(2-(2-(2-methoxyethoxy)ethoxy)ethyl)piperazine-1-carboxamide], the IC50 on VEGFR2 (KDR) amounted to 2 nM.

Regarding `COCCOCCOCCOCCN(C(=O)CO)C1CCN(Cc2ccc(-c3cc4nccc(Oc5ccc(NC(=O)NC6CC6)cc5F)c4s3)nc2)CC1` [Compound 24], the IC50 at VEGFR2 (KDR) was found to be 15 nM. For the same molecule, the inhibition in vivo at 3 nmol/eye in test [1] turned out to be 28.9%.

As to `COCCOCCOCCOCCOc1ccccc1NCc1ccc(-c2cc3nccc(Oc4ccc(NC(=O)NC5CC5)cc4F)c3s2)nc1` [Compound 38, 1-(4-(2-(5-((2-(2,5,8,11-Tetraoxamidecan-13-yloxy)phenylamino)methyl)pyridin-2-yl)thieno[3,2-b]pyridin-7-yloxy)-3-fluorophenyl)-3-cyclopropylurea], at VEGFR2 (KDR), the IC50 is 24 nM.

As for `COCCOCCOCCOCCOCCC(=O)OCC(=O)N1CCN(Cc2ccc(-c3cc4nccc(Oc5ccc(NC(=O)NC6CC6)cc5F)c4s3)nc2)CC1` [Compound 19], the IC50 on VEGFR2 (KDR) amounted to 20 nM.

For `CC(C)[C@H](NC(=O)CN)C(=O)OCC(=O)N1CCN(Cc2ccc(-c3cc4nccc(Oc5ccc(NC(=O)NC6CC6)cc5F)c4s3)nc2)CC1` [Compound 13], at VEGFR2 (KDR), the IC50 came out at 10 nM. Also, the inhibition in vivo at 3 nmol/eye in test [1] was found to be 41.6%.

For the molecule `COCCOCCOCC(=O)N1CC(N(CC(=O)O)Cc2ccc(-c3cc4nccc(Oc5ccc(NC(=O)NC6CC6)cc5F)c4s3)nc2)C1` [Compound 45, 2-(((6-(7-(4-(3-Cyclopropylureido)-2-fluorophenoxy)thieno[3,2-b]pyridin-2-yl)pyridin-3-yl)methyl)(1-(2-(2-(2-methoxyethoxy)ethoxy)acetyl)azetidin-3-yl)amino)acetic acid], the IC50 on VEGFR2 (KDR) worked out at 3 nM.

As for `COCCOCCOCCOCCN(C(=O)C(F)(F)F)C1CCN(Cc2ccc(-c3cc4nccc(Oc5ccc(NC(=O)NC6CC6)cc5F)c4s3)nc2)CC1` [Compound 25], on VEGFR2 (KDR), the IC50 is 53 nM. Further, the inhibition in vivo at 3 nmol/eye in test [1] was determined as 20.9%.

As to `COCCOCCOCCOCCOCCn1cc(-c2cc3nccc(Oc4ccc(NC(=O)NC5CC5)cc4F)c3s2)nn1` [Compound 33, 1-(4-(2-(1-(2,5,8,11,14-Pentaoxahexadecan-16-yl)-1H-1,2,3-triazol-4-yl)thieno[3,2-b]pyridin-7-yloxy)-3-fluorophenyl)-3-cyclopropylurea], the IC50 at VEGFR2 (KDR) was 107 nM.

Take `CC(C)[C@H](N)C(=O)N[C@H](C(=O)OCC(=O)N1CCN(Cc2ccc(-c3cc4nccc(Oc5ccc(NC(=O)NC6CC6)cc5F)c4s3)nc2)CC1)C(C)C` [Compound 12, (S)-2-(4-((6-(7-(4-(3-Cyclopropylureido)-2-fluorophenoxy)thieno[3,2-b]pyridin-2-yl)pyridin-3-yl)methyl)piperazin-1-yl)-2-oxoethyl 2-((S)-2-amino-3-methylbutanamido)-3-methylbutanoate]: the IC50 at VEGFR2 (KDR) amounted to 13 nM. Besides, in test [1], the inhibition in vivo at 3 nmol/eye came to 47%.

For the molecule `COCCOCCOCCOCCOCCC(=O)N1CCN(Cc2ccc(-c3cc4nccc(Oc5ccc(NC(=O)NC6CC6)cc5F)c4s3)nc2)CC1` [Compound 49], at VEGFR2 (KDR), the IC50 is 8 nM. Further, in test [1], the inhibition in vivo at 3 nmol/eye was 20.9%.

Consider `COCCOCCOCCOCCOCCNC(=O)N1CCN(Cc2ccc(-c3cc4nccc(Oc5ccc(NC(=O)NC6CC6)cc5F)c4s3)nc2)CC1` [Compound 56], for which the IC50 at VEGFR2 (KDR) amounted to 2 nM.

`COCCOCCOCCOCCC(=O)N1CCN(Cc2ccc(-c3cc4nccc(Oc5ccc(NC(=O)NC6CC6)cc5F)c4s3)nc2)CC1` [Compound 46, 1-(4-(2-(5-((4-2,5,8,11-Tetraoxatetradecanepiperazin-1-yl)methyl)pyridin-2-yl)thieno[3,2-b]pyridin-7-yloxy)-3-fluorophenyl)-3-cyclopropylurea]: the IC50 at VEGFR2 (KDR) came to 11 nM. Besides, in test [1], the inhibition in vivo at 3 nmol/eye amounted to 24.8%.

Take `O=C(Nc1ccc(Oc2ccnc3cc(-c4ccc(CN5CCOCCOCCOCCOCCOCC5)cn4)sc23)c(F)c1)NC1CC1` [Compound 8, 1-(4-(2-(5-((1,4,7,10,13-Pentaoxa-16-azacyclooctadecan-16-yl)methyl)pyridin-2-yl)thieno[3,2-b]pyridin-7-yloxy)-3-fluorophenyl)-3-cyclopropylurea]: the IC50 on VEGFR2 (KDR) is 13 nM.

Turning to `COCCOCCOCCOCCN(C1CCN(Cc2ccc(-c3cc4nccc(Oc5ccc(NC(=O)NC6CC6)cc5F)c4s3)nc2)CC1)S(C)(=O)=O` [Compound 26], on VEGFR2 (KDR), the IC50 turned out to be 13 nM.

For `COCCOCCOCCOCCNC1CCN(Cc2ccc(-c3cc4nccc(Oc5ccc(NC(=O)NC6CC6)cc5F)c4s3)nc2)CC1` [Compound 22, 1-(4-(2-(5-((4-(2,5,8,11-Tetraoxamidecan-13-ylamino)piperidin-1-yl)methyl)pyridin-2-yl)thieno[3,2-b]pyridin-7-yloxy)-3-fluorophenyl)-3-cyclopropylurea], the IC50 on VEGFR2 (KDR) is 13 nM.

For `COCCOCCOCCOCCNC(=O)N1CCN(Cc2ccc(-c3cc4nccc(Oc5ccc(NC(=O)NC6CC6)cc5F)c4s3)nc2)CC1` [Compound 55], the IC50 at VEGFR2 (KDR) was 2 nM.

Regarding `COCCOCCOCCOCCOCC(=O)N1CCN(Cc2ccc(-c3cc4nccc(Oc5ccc(NC(=O)NC6CC6)cc5F)c4s3)nc2)CC1` [Compound 48], the IC50 on VEGFR2 (KDR) was determined as 13 nM.

The values are drawn from patent US20130096088A1, “Inhibitors of Protein Tyrosine Kinase Activity” (METHYLGENE INC., priority 2011, published 2013).
